In patent US8092790B2, “Methods of making formulations to affect insect behavior and/or bird behavior” (Bug Buster, Ltd., priority 2003, dated 2012):

How the values were obtained:
[1] = tested on: T. tabaci; settings: in vivo; cited from earlier work
[2] = tested on: house flies (D. melanogater); experiment: Treated aluminum siding section on building; assay type: in vivo; settings: 0.025%
Description: (§1) An exemplary compound, methyl anthranilate (e.g. Bird Shield™) was applied at 0.025% concentration to a three foot by one foot (three square feet) section of aluminum siding (treated section) and compared with a equal sized section of aluminum siding (untreated section) on the side of a building. Approximately 23 to 25 house flies (D. melanogater) had landed and were resting on each section. […] All of the flies on the untreated section remained. […] Twenty-three flies remained on the adjacent untreated section.

[3] = tested on: house flies; experiment: Treated aluminum siding section on building; assay type: in vivo, D. melanogater; settings: 0.025%, thirty minutes after application
Description: as §1

[4] = tested on: mosquito (Aedes aegyptis); experiment: Mosquito repellency on human subject; assay type: in vivo
Description: In these trials, DEET was provided in the commercially available product DEEP WOODS OFF™ repellent (S.C. Johnson & Son, Inc., Racine, Wis.), which has approximately 28.5% active ingredient; 1.5% other isomers and 70% inert ingredients.
In a first trial, a human subject was exposed to a mosquito (Aedes aegyptis) rich environment without application of the exemplary compound or DEET. Within less than one minute the subject was covered with the insects. In a second trial, the subject sprayed one unclothed arm with the exemplary compound at a rate of 0.00312% and the other unclothed arm with DEET at a concentration of 0.24%. The subject's head remained untreated. Upon returning to the test area, the subject's head was covered with the insects within one minute. […] In a third trial the subject, after removing the DEET from his/her body, reapplied the exemplary compound to unclothed arms, head and neck before returning to the test area. The subject returned to and remained in the test area for more than one hour without any of the insects landing on his/her arms, hands and head while numerous insects were observed on the clothed portions of his/her anatomy.

[5] = tested on: insects; experiment: Glue coated cardboard traps in a field; assay type: in vivo
Experimental: Trials were performed using an exemplary compound as part of a trapping device (e.g., a glue coated cardboard surface). Five traps were each treated with a 1 ml solution of 0.0156%, 0.03125%, 0.0625%, 0.125% and 0.25% methyl anthranilate, respectively. The treated traps were then placed at relatively random locations in a field. An untreated trap was placed adjacent to each treated trap and the number of insects adhered to each trap recorded as a function of time.

[6] = tested on: ant nest; experiment: Treatment of ant nest; assay type: in vivo; settings: diluted form; about 24 hours post-application
Description: An exemplary method includes applying an exemplary compound or an exemplary composition to an insect nest.

[7] = tested on: T. coloratus; settings: in vivo; cited from earlier work
[8] = tested on: corn ear worm (Heliothus zea); experiment: Exemplary compound applied after insecticide, sweet corn; assay type: in vivo
Description: An exemplary compound, methyl anthranilate, was applied to sweet corn after the crop had been treated with an insecticide (e.g., the pyrethrin insecticide WARRIOR™) to control corn ear worm (Heliothus zea). Prior to application of the exemplary compound, few if any larvae, which typically reside in the developing ear, were observed on the ground around the corn stalks.
After applying the exemplary compound, methyl anthranilate, at a concentration of approximately 4.5 oz.

[9] = tested on: Thrips hawaiiensis; settings: in vivo; cited from earlier work
[10] = tested on: adult weevils; experiment: Exemplary compound on sunflowers previously sprayed with esfenvalerate, weevils emerging; assay type: in vivo
Description: (§2) An exemplary compound, methyl anthranilate, was combined with long chain fatty acids. An exemplary method applied the mixture to fifteen maturing sunflowers in the interior of two fields that were previously sprayed with an insecticide, esfenvalerate (e.g., the insecticide product ASANA™). The mixture that included the exemplary compound was applied by spraying the mixture across the head of each flower (e.g., where seeds exist). The number of striped sunflower head moth larvae and weevils, emerging from the seeds, was recorded.

[11] = tested on: striped sunflower head moth larvae; experiment: Exemplary compound applied after exemplary composition, sunflowers; settings: in vivo
Description: An exemplary compound, methyl anthranilate, was combined with long chain fatty acids. The exemplary compound, as mixed with the fatty acids, was applied to three fields of maturing sunflowers. Each of the fields had previously been treated with an exemplary composition that included an exemplary compound, methyl anthranilate (approx. 4.5 oz per acre mixed with long chain fatty acids) and an insecticide, in this example, esfenvalerate (approx. 8 oz per acre using the insecticide product ASANA™). Ten flowers were randomly selected from the interior of each field and one-half of the seed heads were sprayed with DEET and one-half sprayed with the exemplary compound at a concentration of approximately 0.00312% methyl anthranilate, which was in a mixture that included long chain fatty acids. Spraying sprayed across the head of each flower. The number of striped sunflower head moth larvae, emerging from the seeds, was recorded.

[12] = tested on: ants; experiment: Treatment of ground to form a boundary; settings: in vivo
Experimental: An exemplary method includes applying an exemplary compound or composition to the ground to thereby discourage insect traffic or deposition of insect semiochemicals. For example, where an exemplary compound is applied to the ground, the ground is not readily further marked by an insect semiochemical. A trial was performed where an exemplary compound (methyl anthranilate) was applied to the ground to form a boundary.

[13] = tested on: striped sunflower head moth larvae; experiment: Exemplary compound on sunflowers previously sprayed with esfenvalerate, moth larvae emerging; assay type: in vivo
Description: as §2

For `COC(=O)c1ccccc1N` [methyl anthranilate], the “attraction of T. tabaci” value [1] is given as “did not attract”, the “flies resting on treated section” value ([2]; immediately after application) is given as “all of the flies departed” and the “flies on treated section” value ([2]; one hour after application) is given as “no flies were observed trying to land on the treated section”. For the same compound, the “time flies remained on treated section” value ([2]; thirty minutes after application) was 6 to 8 s, the “flies on treated section” value ([2]; twenty-four hours after application) was “no flies were observed on the treated section” and the “flies attempting to land on treated section within a five minute period” value [3] was “approximately 30 flies”. For the same compound, the “effectiveness as mosquito repellent compared with DEET” value ([4]; at lower concentrations) was “as effective as DEET”, the “mosquitoes on treated unclothed arm” value ([4]; second trial, methyl anthranilate 0.00312%, DEET 0.24%, untreated head covered within one minute) was “No mosquitoes were found” and the “time in test area without insects landing on treated arms, hands and head” value ([4]; third trial) was “more than one”. The “number of insects adhered to trap” value ([5]; 0.0156 percent, 1 min) was 3, the “number of insects adhered to trap” value ([5]; 0.0156 percent, 5 min) was 22 and the “number of insects adhered to trap” value ([5]; 0.0156 percent, 10 min) was 75. For the same compound, the “number of insects adhered to trap” value ([5]; 0.0156 percent, 20 min) was greater than 75, the “number of insects adhered to trap” value ([5]; 0.0313 percent, 1 min) was 5 and the “number of insects adhered to trap” value ([5]; 0.0313 percent, 5 min) was 15. The “number of insects adhered to trap” value ([5]; 0.0313 percent, 10 min) was 68, the “number of insects adhered to trap” value ([5]; 0.0313 percent, 20 min) was greater than 68 and the “number of insects adhered to trap” value ([5]; 0.0625 percent, 1 min) was 7. For the same compound, the “number of insects adhered to trap” value ([5]; 0.0625 percent, 5 min) was 35, the “number of insects adhered to trap” value ([5]; 0.0625 percent, 10 min) was 128 and the “number of insects adhered to trap” value ([5]; 0.0625 percent, 20 min) was greater than 128. The “number of insects adhered to trap” value ([5]; 0.1250 percent, 1 min) was 15, the “number of insects adhered to trap” value ([5]; 0.1250 percent, 5 min) was 62 and the “number of insects adhered to trap” value ([5]; 0.1250 percent, 10 min) was 256. For the same compound, the “number of insects adhered to trap” value ([5]; 0.1250 percent, 20 min) was greater than 256, the “number of insects adhered to trap” value ([5]; 0.2500 percent, 1 min) was 43 and the “number of insects adhered to trap” value ([5]; 0.2500 percent, 5 min) was 84. For the same compound, the “number of insects adhered to trap” value ([5]; 0.2500 percent, 10 min) was 346, the “number of insects adhered to trap” value ([5]; 0.2500 percent, 20 min) was greater than 346 and the “ant activity at the site of the nest” value [6] was “no ant activity was observed”. The “attraction of T. coloratus” value [7] was “are attracted”, the “insects on the ground around the corn stalks” value ([8]; approximately 4.5 oz. (127 g) per acre by aircraft, after WARRIOR treatment) was “a significant number of insects were observed on the ground” and the “worms in the corn ears at harvest” value ([8]; insecticide (WARRIOR) and methyl anthranilate) was “did not contain any significant number of worms”. The “attraction of Thrips hawaiiensis” value [9] was “are attracted”, the “Number of Adult Weevils, Mean” value ([10]; Field No 2) was 1.14 and the “Number of Adult Weevils, Total” value ([10]; Field No 2) was 8. The “Number of Adult Weevils, Mean” value ([10]; Field No. 1) was 0.43, the “Number of Adult Weevils, Total” value ([10]; Field No. 1) was 3 and the “effectiveness when applied after an exemplary composition” value [11] was “high level of effectiveness”. For the same compound, the “crossing of treated ground boundary” value [12] was “ants did not cross this boundary”, the “Number of Moth Larvae, Mean” value ([13]; Field No 2) was 0.86 and the “Number of Moth Larvae, Total” value ([13]; Field No 2) was 6. For the same compound, the “Number of Moth Larvae, Mean” value ([13]; Field No. 1) was 0.57, the “Number of Moth Larvae, Total” value ([13]; Field No. 1) was 4 and the “drawing larvae and weevils out of the seeds” value ([13]; after the crop had been treated with the insecticide alone) was “successful in drawing striped sunflower head math larvae out of the seeds”.
